According to patent US20260174761A1 (priority 2022, published 2026):

Tests used:
[1] = high concentrations (above 100 μM); cited from earlier work
IBD mice = test: DSS-induced inflammatory bowel disease (IBD) mouse model: colon IL-6 by ELISA and colon length; type: in vivo, C57BL6 mice; settings: for reduction of IL-6 levels within the colon: male mice, 2.5% DSS for 5 days, treatment from day 4 for four days, 2-CL-MGV-1 15 mg/kg, dexamethasone 0.75 mg/kg, vs DSS without treatment
Description: FIG. 1 includes a bar graph showing that interleukin (IL) 6 levels in the gut of IBD mice are reduced in response to 2-CL-MGV-1 treatment. Nine-weeks-old C57BL6 male mice were given 2.5% dextran sulfate sodium (DSS) in drinking water for 5 days. Naive mice were given water only. The treatments: 2-CL-MGV-1 and dexamethasone were given on day 4 for four days. […] ANOVA followed by Bonferroni's post-hoc test was performed. ***p<0.00001 compared to control.
FIG. 2 includes a bar graph showing that the treatment with 2-CL-MGV-1 reduces the shortening of IBD mice colon. Nine-weeks-old C57BL6 male mice were given 2.5% DSS in drinking water for 5 days. Naive mice were given water only. The treatments: 2-CL-MGV-1 and dexamethasone were given on day 4 for four days.
FIG. 4 includes a vertical bar graph showing that IL 6 levels in the gut of IBD mice are reduced in response to 2-CL-MGV-1 treatment. C57BL female mice aged of 8-10 weeks were given 2.5% DSS in their drinking water for 7 days. Vehicle group mice were given water only and DMSO injections on the 4th day for 4 days. DSS group received DSS with DMSO (as a vehicle) that were given on the 4th day for 4 days. The treatment group received 2-CL-MGV-1 (15 mg/kg) and DMSO as a vehicle were given on the 4th day for 4 days. […] ANOVA followed by Bonferroni's post-hoc test was performed. ***p<0.001 compared to control.
FIG. 5 includes a vertical bar graph showing that the treatment with 2-CL-MGV-1 reduces the shortening of IBD mice colon. C57BL female mice aged of 8-10 weeks were given 2.5% DSS in their drinking water for 7 days. Vehicle group mice were given water only and DMSO injections on the 4th day for 4 days. DSS group received DSS with DMSO (as a vehicle) that were given on the 4th day for 4 days. The treatment group received 2-CL-MGV-1 (15 mg/kg) and DMSO (as a vehicle) that were given on the 4th day for 4 days. […] ANOVA followed by Bonferroni's post-hoc test was performed. ***p<0.001 compared to control.
C57BL mice 8-10 weeks old were given 2.5% DSS in their drinking water for 7 days. On the fourth day, the mice were injected subcutaneously (S.C) with either DMSO or 2-CL-MGV-1 (30 μl) for four days. The mice were sacrificed on the eighth day of the experiment.
In the IBD experiment, 2-Cl-MGV-1 was injected subcutaneously for four days, three days after inflammation induction in the colon, using dextran sulfate sodium (DSS). On the following day, the mice were sacrificed, and the colon was removed. Colon lengths were measured, and cytokine levels were detected by ELISA.

[2] = test system: human retinal pigment epithelium (RPE)-19 cell line; test: In vitro AMD model: RPE-19 cells stimulated with TNF-α and INF-γ (TI), secreted pro-inflammatory mediators; type: cell-based; settings: RPE cells pretreated with compound, TNF-α and INF-γ stimulation
Text: TNF-α and INF-γ stimulation (TI).
Next, the effect of 2-CL-MGV-1 was examined in an in vitro model of age-related macular degeneration (AMD). Human retinal pigment epithelium (RPE)-19 cell line stimulated with TNF-α and INF-γ (TI) are known to mimic AMD by complement activation and increased levels of circulating cytokines.

[3] = test system: lipopolysaccharide (LPS)-induced microglial activation; settings: recent studies of the inventors; cited from earlier work
[4] = female mice, 2.5% DSS for 7 days, 2-CL-MGV-1 15 mg/kg s.c. from 4th day for 4 days, vs DSS+vehicle (DMSO)

Row | SMILES | lethal effects [1] | reduction of IL-6 levels within the colon (IBD mice) | TI-induced secretion of IL-8 [2] | TI-induced secretion of complement C3 [2] | TI-induced secretion of complement C5 [2] | TI-induced secretion of reactive oxygen species (ROS) [2] | LPS-induced microglial activation [3] | decrease in IL-6 content in the colon (IBD mice; [4]) | increase in colon length (IBD mice; [4]) | colon shrinkage effect compared to dexamethasone (IBD mice; male DSS mice, 2-CL-MGV-1 15 mg/kg vs dexamethasone 0.75 mg/kg) | colon shrinkage (shortening) effect (IBD mice; male and female DSS mice, 2-CL-MGV-1 15 mg/kg for four days) | effect on IL-6 secretion relative to dexamethasone (DEX) treatment (IBD mice; murine IBD model, compared to DEX)
1 | CCC(C)N(C)C(=O)c1cc2ccccc2c(-c2ccccc2Cl)n1 (centres unmarked) [PK 11195, reference compound] | pronounced lethal effects | – | – | – | – | – | – | – | – | – | – | –
2 | C[C@@H]1C[C@H]2[C@@H]3CCC4=CC(=O)C=C[C@]4(C)[C@@]3(F)[C@@H](O)C[C@]2(C)[C@@]1(O)C(=O)CO [dexamethasone, reference compound] | – | 20% | – | – | – | – | – | – | – | – | – | –
3 | CN(C)C(=O)Oc1nc(-c2ccccc2Cl)nc2ccccc12 [2-Cl-MGV-1, 2-chlorophenyl quinazolin-4-yl dimethylcarbamate] | very few lethal effects | 75% | significantly reduced | significantly reduced | significantly reduced | significantly reduced | inhibit | 64% | 26% | significantly more pronounced | alleviated the colon shrinkage effect | about 75%
